Experimental data reported in paper PMC9551036, “A selective and orally bioavailable VHL-recruiting PROTAC achieves SMARCA2 degradation in vivo” (Nature Communications, 2022).
“And” between values parts separate entries of the source, which are not always exact repeats. Equal values may be shown once. Read-outs that look alike come from different tables or passages of the source.

Tests used:
SMARCA4 = SMARCA4 (Homo sapiens, UniProt P51532); assay: Imaging-based SMARCA4 protein assay in RKO cells; assay type: cell-based; design: endogenous in cells; host or cells: RKO, HCT116, LU99, HCC-364, HCT-15, HCC4006, SK-N-AS; conditions: individual replicates
Procedure: 1250 cells per well in 60 µl medium were plated in flat bottom, poly-lysin coated 384-well plates (CellCarrier Ultra, Perkin Elmer). The next day, test compounds (10 µl of serial dilutions) and DMSO controls were diluted in DMEM medium such that the final DMSO content was <1% or were added using an ultrasound dispensing system. 4 wells were reserved for a background measurement. […] After aspirating the fixing solution, the cells were washed once with 25 µl PBS. 25 µl of blocking buffer (10% goat serum in PBS) was added and cells were incubated for 30 min, then washed once with PBS. Cells were stained with 20 µl of SMARCA2/4 primary antibody solution (Sigma #HPA029981 RRID:AB_10602406 1:1000 or Cell Signalling #52251 clone E9O6 RRID:AB_2799410 1:1000 in PBS with 10% FCS) for 2–4 h at room temperature. Cells were again washed once with PBS. […] The cell layer was then washed once with 25 µl PBS, the wells were filled with 25 µl PBS and the plates were sealed with an adhesive sheet. They were then imaged on the Opera Phoenix (mean intensity in the nucleus). Results were computed as percent of controls ((value of test compound − background)/(value of the negative control DMSO—background) multiplied by 100). EC50 values were computed using a 4-parametric logistic model.

SMARCA4^BD = molecular target: T1, SMARCA4^BD (Homo sapiens, UniProt P51532); assay: SPR binding to immobilised SMARCA4 bromodomain
T1 construct: P51532, residues 1448–1569 with additional N-terminal SM residues; GST (TEV site) (N, cleaved yes); made in house; host or cells: Escherichia coli BL21(DE3); construct from SGC Toronto
Procedure: SMARCA4^BD was provided by the Structural Genomics Consortium (SGC), Toronto[32] and SMARCA2^BD and PRM1^BD5 were synthesised by GeneArt then subcloned into pDEST15 vectors (Invitrogen). The VCB complex was expressed and purified as described previously, with the modification that 0.3 mM IPTG was used for induction of expression. […] Both were stored in 20 mM 4-(2-hydroxyethyl)−1-piperazineethanesulfonic acid (HEPES), 150 mM sodium chloride and 1 mM tris(2-carboxyethyl)phosphine (TCEP) pH 7.5. SMARCA2^BD, SMARCA4^BD and PBRM1^BD5 were expressed in Escherichia coli BL21(DE3) as N-terminal GST fusion proteins with a TEV protease cleavage site. Expression and purification of these proteins has been described previously[32],[33]. Starter cultures were grown overnight at 37 °C in 10 mL of Luria-Bertani (LB) medium with ampicillin (100 μg/mL). The starter cultures were diluted (1:100) in Terrific Broth (TB) medium with ampicillin (100 μg/mL) and grown in a shaking incubator at 37 °C to an optical density (OD600) ~1 before the temperature was lowered for induction (to 23 °C for SMARCA2^BD or 18 °C for SMARCA4^BD and PRRM1^BD5). […] Cells were harvested by centrifugation and stored at −80 °C prior to purification. Cells were resuspended in Lysis buffer and lysed by sonication (20 pulses of 5 s for 4 min) using a Sonopuls HD 3080 (Bandelin, Berlin, Germany) or by homogenisation using a Stansted Pressure Cell Homogeniser (Stansted Fluid Power). The Lysis buffers were as follows: for SMARCA2^BD: 50 mM HEPES, 500 mM sodium chloride, 5% glycerol, 5 mM dithiothreitol (DTT); for SMARCA4^BD: 25 mM HEPES, 0.3 M sodium chloride, 5% glycerol, 10 mM DTT, pH 7.5; for PBRM1^BD5: 25 mM HEPES, 300 mM sodium chloride, 5% glycerol, 10 mM DTT, pH 7.8; in each case supplemented with complete protease inhibitors (Roche). Affinity purification was performed using Glutathione Sepharose 4B (GE Healthcare) in batch mode or on-column. […] For SMARCA2^BD, prior to TEV protease cleavage the eluted GST-tagged BD was first dialysed into desalting buffer (20 mM HEPES, 250 mM sodium chloride, pH 7.0 + 0.5% glycerol). Where TEV cleavage was performed in solution, a second affinity (GST-trap) column purification step was carried out to remove the GST-tag and uncleaved GST-tagged protein. Proteins were further purified by SEC (HiLoad Superdex-75, 16/600) (GE Healthcare) and stored in Storage buffer (for SMARCA2^BD: 20 mM HEPES, 150 mM sodium chloride, pH 7.5; for SMARCA4^BD: 10 mM HEPES, 0.5 M NaCl, 5% glycerol, pH 7.5; for PBRM1^BD5: 20 mM HEPES, 300 mM NaCl, 5 mM DTT, pH 7.8). For AlphaScreen assays, eluted GST-tagged BDs were purified directly by SEC in the respective storage buffers without TEV cleavage. All chromatography purification steps were performed either at room temperature or 4 °C using an ÄKTA FPLC purification system (GE Healthcare) or a plastic Econo-Pac column (Bio-Rad).
SPR data were acquired on Biacore 8K or T200 instruments (Cytiva). Target proteins were immobilised at 25 °C on CM5 chips by amine coupling (EDC/NHS, Cytiva) in HBS-P+ running buffer (pH 7.4), containing 2 mM TCEP. After surface activation with EDC/NHS (contact time 420 s, flow rate 10 µl/min) SMARCA2^BD and SMARCA4^BD at 0.01–0.05 mg/ml in coupling buffer (10 mM Na-Acetate pH 6.5, 0.005% TWEEN 20 and 50 µM PFI-3[13]) were immobilised to a density of 100–5000 Response Units (RU). The reference surface was subsequently deactivated using 1 M ethanolamine. For VCB immobilisation, streptavidin (Sigma Aldrich, prepared at 1 mg/ml in 10 mM sodium acetate coupling buffer, pH 5.0) was immobilised by amine coupling to a density of 3000–5000 RU after which biotinylated VCB complex (0.125 mM in running buffer) was streptavidin-coupled to a density of 100–500 RU. Biotinylated VCB was prepared as previously described[27]: in brief, the complex was mixed 1:1 with EZ-Link NHS–PEG4–biotin (Thermo Scientific) and incubated at room temperature for 1 h.

[1] = 4h, read-out: RKO (4h) SMARCA4 DC50
[2] = 18h, read-out: RKO (18h) SMARCA4 DC50

T1 sequence (P51532 1448-1569): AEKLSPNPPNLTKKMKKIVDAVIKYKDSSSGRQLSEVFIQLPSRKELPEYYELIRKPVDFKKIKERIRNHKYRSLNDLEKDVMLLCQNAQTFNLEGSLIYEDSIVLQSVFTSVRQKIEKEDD
Sequence of SMARCA4 (P51532 whole entry): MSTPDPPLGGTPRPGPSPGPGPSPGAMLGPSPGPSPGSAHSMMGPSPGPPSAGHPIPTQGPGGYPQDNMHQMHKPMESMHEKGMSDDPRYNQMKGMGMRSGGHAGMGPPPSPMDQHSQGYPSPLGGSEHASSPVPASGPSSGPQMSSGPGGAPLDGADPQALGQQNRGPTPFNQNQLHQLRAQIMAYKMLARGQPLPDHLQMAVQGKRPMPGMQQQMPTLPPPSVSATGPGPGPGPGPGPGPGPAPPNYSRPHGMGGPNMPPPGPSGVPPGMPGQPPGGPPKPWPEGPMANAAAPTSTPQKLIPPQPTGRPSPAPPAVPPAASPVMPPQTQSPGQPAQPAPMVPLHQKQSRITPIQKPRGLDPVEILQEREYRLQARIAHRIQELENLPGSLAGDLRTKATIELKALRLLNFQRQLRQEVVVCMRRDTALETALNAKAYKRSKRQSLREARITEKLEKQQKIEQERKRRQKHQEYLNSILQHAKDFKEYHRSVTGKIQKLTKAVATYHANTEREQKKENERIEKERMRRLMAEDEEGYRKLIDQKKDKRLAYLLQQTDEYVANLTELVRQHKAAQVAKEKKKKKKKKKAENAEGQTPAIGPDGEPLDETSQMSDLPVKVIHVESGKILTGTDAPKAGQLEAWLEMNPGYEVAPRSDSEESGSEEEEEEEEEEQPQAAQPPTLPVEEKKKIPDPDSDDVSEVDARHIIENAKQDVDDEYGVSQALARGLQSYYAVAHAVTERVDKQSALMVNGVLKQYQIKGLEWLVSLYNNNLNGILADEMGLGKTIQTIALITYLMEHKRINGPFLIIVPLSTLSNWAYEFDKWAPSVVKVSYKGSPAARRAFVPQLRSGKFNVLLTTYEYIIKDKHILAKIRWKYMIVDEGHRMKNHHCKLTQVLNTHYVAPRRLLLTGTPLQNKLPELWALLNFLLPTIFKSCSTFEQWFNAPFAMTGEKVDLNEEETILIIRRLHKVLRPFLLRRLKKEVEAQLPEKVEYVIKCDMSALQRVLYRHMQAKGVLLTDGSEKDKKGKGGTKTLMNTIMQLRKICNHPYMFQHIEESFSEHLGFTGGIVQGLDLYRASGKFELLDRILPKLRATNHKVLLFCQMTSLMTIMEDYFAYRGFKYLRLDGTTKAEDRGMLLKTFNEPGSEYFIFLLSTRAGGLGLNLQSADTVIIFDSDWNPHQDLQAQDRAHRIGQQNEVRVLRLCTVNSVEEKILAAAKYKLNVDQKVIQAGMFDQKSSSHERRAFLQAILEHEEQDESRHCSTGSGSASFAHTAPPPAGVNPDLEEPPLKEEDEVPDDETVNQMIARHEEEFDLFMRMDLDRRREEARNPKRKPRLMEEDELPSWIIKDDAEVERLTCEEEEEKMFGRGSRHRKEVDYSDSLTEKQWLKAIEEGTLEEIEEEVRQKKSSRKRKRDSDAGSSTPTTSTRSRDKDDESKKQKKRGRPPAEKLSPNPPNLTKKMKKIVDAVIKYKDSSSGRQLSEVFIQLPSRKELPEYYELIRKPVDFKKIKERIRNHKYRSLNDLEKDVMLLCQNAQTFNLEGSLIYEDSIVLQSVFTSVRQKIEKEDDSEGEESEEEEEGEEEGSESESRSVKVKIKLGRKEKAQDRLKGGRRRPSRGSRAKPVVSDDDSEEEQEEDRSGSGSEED

SMILES | DC50 (SMARCA4; [1]) | DC50 (SMARCA4; [2]) | Kd (SMARCA4^BD; SMARCA4BD, mean ± SD) [nM] | Kd (SMARCA4^BD; individual replicates)
CN1CCN(c2nc(=O)c3c(Br)cccc3o2)CC1 [compound 15] | > 25000 nM | > 25000 nM | 12000 ± 902 | 12900 nM and 11900 nM and 11100 nM
CN1CCN(c2nc(=O)c3c(I)cccc3o2)CC1 [compound 16] | > 25000 nM | > 25000 nM | 22100 ± 1230 | 23100 nM and 20700 nM and 22400 nM
CN1CCN(c2nc(=O)c3c(F)cccc3o2)CC1 [compound 17] | > 25000 nM | > 25000 nM | – | –
Cc1ncsc1-c1ccc(CNC(=O)[C@@H]2C[C@H](O)CN2C(=O)[C@@H](NC(=O)C2(F)CC2)C(C)(C)C)c(OCCN2CCC(c3ccc4c(c3)n(C3CCCC3)c3nc(=O)c5c(Br)cccc5n43)CC2)c1 [compound 19] | > 25000 nM | > 25000 nM | 138 ± 43 | 98.2 nM and 132 nM and 183 nM
Cc1ncsc1-c1ccc(CNC(=O)[C@@H]2C[C@@H](O)CN2C(=O)[C@@H](NC(=O)C2(F)CC2)C(C)(C)C)c(OCCN2CCC(c3ccc4c(c3)n(C3CCCC3)c3nc(=O)c5c(Br)cccc5n43)CC2)c1 [compound 20] | > 25000 nM | > 25000 nM | 182 ± 23 | 157 nM and 202 nM and 187 nM
Cc1ncsc1-c1ccc(CNC(=O)[C@@H]2C[C@@H](O)CN2C(=O)[C@@H](NC(=O)C2(F)CC2)C(C)(C)C)c(OCCOCCOCCN2CCC(c3ccc4c(c3)n(C3CCCC3)c3nc(=O)c5c(Br)cccc5n43)CC2)c1 [compound 21] | 22.9 nM and 45.5 nM and 8.98 nM | 42.3 nM and 189 nM and 70.5 nM | 863 ± 179 | 868 nM and 1040 nM and 682 nM
Cc1ncsc1-c1ccc(CNC(=O)[C@@H]2C[C@@H](O)CN2C(=O)[C@@H](NC(=O)C2(F)CC2)C(C)(C)C)c(OCCOCCOCCOCCN2CCC(c3ccc4c(c3)n(C3CCCC3)c3nc(=O)c5c(Br)cccc5n43)CC2)c1 [compound 22] | 32.8 nM and 118 nM and 40 nM | 39.9 nM and 168 nM and 69.1 nM | 1430 ± 339 | 1040 nM and 1650 nM and 1600 nM
Cc1ncsc1-c1ccc(CNC(=O)[C@@H]2C[C@@H](O)CN2C(=O)[C@@H](NC(=O)C2(F)CC2)C(C)(C)C)c(OCCCCN2CCC(c3ccc4c(c3)n(C3CCCC3)c3nc(=O)c5c(Br)cccc5n43)CC2)c1 [compound 23] | – | – | 169 ± 76 | 117 nM and 133 nM and 256 nM
Cc1ncsc1-c1ccc([C@H](CCCCN2CCC(c3ccc4c(c3)n(C3CCCC3)c3nc(=O)c5c(Br)cccc5n43)CC2)NC(=O)[C@@H]2C[C@@H](O)CN2C(=O)[C@@H](NC(=O)C2(F)CC2)C(C)(C)C)cc1 [compound 25] | – | 31.7 nM and 60 nM and 33.5 nM | 153 ± 10 | 142 nM and 157 nM and 161 nM
Cc1ncsc1-c1ccc([C@H](COCCN2CCC(c3ccc4c(c3)n(C3CCCC3)c3nc(=O)c5c(Br)cccc5n43)CC2)NC(=O)[C@@H]2C[C@@H](O)CN2C(=O)[C@@H](NC(=O)C2(N(C)C)CC2)C(C)(C)C)cc1 [compound 26] | 66.9 nM and 93.6 nM and 83.9 nM | 61.5 nM and 91.3 nM and 101 nM | 210 ± 17 | 202 nM and 199 nM and 229 nM
Cc1ncsc1-c1ccc([C@H](COCCCN2CCC(c3ccc4c(c3)n(C3CCCC3)c3nc(=O)c5c(Br)cccc5n43)CC2)NC(=O)[C@@H]2C[C@@H](O)CN2C(=O)[C@@H](NC(=O)C2(F)CC2)C(C)(C)C)cc1 [compound 27] | – | 22.8 nM and 30.9 nM and 34.7 nM | 388 ± 96 | 308 nM and 361 nM and 494 nM
